For data set [1], the system named is AD constricted rabbit aorta. Briefly: Relaxing effects on vascular smooth muscle constricted by adrenaline hydrochloride (AD) in vitro. As to conditions: relaxation of rabbit aorta constricted by adrenaline (10^−5 mol/L), mean±SEM, n=5; for EC50: Oryctolagus cuniculus. In short, it runs like this:
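Rabbit aortic strips in K-H solution precontracted with adrenaline hydrochloride (10^−5 mol/L) after a reproducible second contraction; compounds added cumulatively over ranges from 1×10^−10 up to 1×10^−2 mol/L depending on the compound series. Relaxation expressed as % of maximal relaxation versus −log concentration, mean±SEM, n=5.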

The test system of data set [2] is NA constricted rabbit aorta. Kind of data set: Relaxing effects on vascular smooth muscle constricted by noradrenaline (NA) in vitro. As to conditions: relaxation of rabbit aorta constricted by noradrenaline (10^−5 mol/L), mean±SEM, n=5; for EC50: Oryctolagus cuniculus. As for the experimental part:
Adrenaline hydrochloride (AD) (10^−5 mol/L) was added into a bath tube to induce constriction, when maximal constriction was achieved, the sample was completely flushed, K-H solution was changed for every 20 min. Contents in the tube was balanced for 60 min, when baseline recovered to be stable, noradrenaline bitartrate (NA) (10^−5 mol/L) was added to induce constriction. When the later maximal constriction response was basically consistent with the former one, the prepared compound solutions were subsequently added, including compound II-84 to II-123 solutions (1×10^−10-1×10^−2 mol/L), compound II-124 to II-157 solutions (1×10^−10-1×10^−3 mol/L), to record the waveforms. Relaxing percentage of the compound was used as Y axis, maximal relaxation response was 100%, negative logarithm of different concentration was used as X axis, to draw dose effect curve (expressed in mean±SEM ( ? ), n=5).

Data set [3] has as its system high kalium concentration constricted rabbit aorta. Briefly: Relaxing effects on vascular smooth muscle constricted by high kalium concentration in vitro. As to conditions: relaxation of rabbit aorta constricted by high kalium solution (K+ 60 mmol/L), mean±SEM, n=5; for EC50: Oryctolagus cuniculus. In a few lines:
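Rabbit aortic rings pre-challenged with adrenaline (10^−5 mol/L), washed and re-equilibrated 60 min in K-H solution, then constricted with high-K+ solution; compounds added cumulatively over 1×10^−10–1×10^−2 mol/L depending on series. Relaxation expressed as % of maximal relaxation vs −log concentration; mean±SEM, n=5.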

A further data set relates to Kunming mice. Kind of data set: Marrow micronucleus test on mice. Type of data set: in vivo. As to conditions: dosed 4 days, test on day 5, II-2 120, II-85 74, cyclophosphane 60 mg/kg/day. As for the experimental part:
Ten Kunming mice (Experimental Animal Center, China Medical University), half male and half female, were used. Compound II-2 was administered via gastric gavage at 120 mg/kg/day, and II-85 was administered to 74 mg/kg/day. The drug was administered for 4 days continuously. Marrow micronucleus test was performed on day 5.
Mice in positive control group were administered cyclophosphane at 60 mg/kg/day. Mice in negative control group were administered normal saline at 0.1 ml/10 g/day. The drug was administered for 4 days continuously. Marrow micronucleus test was performed on day 5.
The mice were killed by snapping neck, and then femur and sternum were excised, with blood and muscles removed, epiphysis cut off. Then marrow from sternum was squeezed to clean glassslide with bovine serum by using a pair of hemostatic forceps, or marrow on femur was flushed directly with bovine serum onto clean glassslide. Then the substance on glassslide were mixed well and smeared. Then the prepared and dried marrow smears were put into staining tank with methanol, fixed for 15 min, picked out to dry in the open air. After marrow smears were dried, it would be stained in freshly prepared Giemsa solution (1 volume of Giemsa stock solution and 9 volumes of pH 6.8 phosphate buffer) for 10 min, staining solution was flushed away with little stream. Then the smear was dried in the open air and observed under a microscope.

In a further data set the test system is α1 receptor. Kind of data set: Antagonism of accumulative constriction of rabbit aorta by noradrenaline (α-receptor agonist). On the procedure:
Then samples were flushed with K-H solution repeatedly, K-H solution was changed for every 20 min, and the samples were balanced for 60 min. After baseline recovered to be stable, doxazosin (10^−7 mol/L) was added, and noradrenaline (NA) (10^−8-6×10^−5 mol/L) was added by using the same method 15 min later.
NA was also added by using the same method 15 min later.

The subject of another data set is Calcium Channel (Ca^2+). Briefly: Antagonism of accumulative constriction of rabbit aorta by CaCl2. As to conditions: calcium free high kalium depolarization.
The target of a further data set is 5-HT2A receptor (Oryctolagus cuniculus, UniProt G1SYA7). Briefly: Antagonism of accumulative constriction of rabbit aorta by 5-HT.
Sequence of 5-HT2A receptor (G1SYA7 1-469): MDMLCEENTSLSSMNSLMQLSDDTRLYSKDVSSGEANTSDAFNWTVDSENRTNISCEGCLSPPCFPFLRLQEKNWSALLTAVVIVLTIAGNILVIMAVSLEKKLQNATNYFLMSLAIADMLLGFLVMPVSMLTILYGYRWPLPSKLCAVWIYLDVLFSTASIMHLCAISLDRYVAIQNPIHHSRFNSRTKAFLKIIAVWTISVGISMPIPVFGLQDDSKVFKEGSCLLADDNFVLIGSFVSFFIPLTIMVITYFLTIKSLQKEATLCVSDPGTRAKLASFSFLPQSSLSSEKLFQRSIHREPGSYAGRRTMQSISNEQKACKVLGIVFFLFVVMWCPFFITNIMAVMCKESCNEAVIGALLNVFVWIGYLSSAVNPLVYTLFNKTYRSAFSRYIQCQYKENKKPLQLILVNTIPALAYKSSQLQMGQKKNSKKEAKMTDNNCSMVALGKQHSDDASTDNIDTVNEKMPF

What is called EC50 is the concentration that produces a half-maximal response. A lower EC50 goes with greater potency. The Kb is the affinity of an antagonist, worked out from how it opposes an agonist. High values mean a less potent antagonist, low ones a more potent antagonist.

Method for 5-HT2A receptor: (§1) Rabbits were hit to be dizzy, with thoracic cavity quickly cut open, descending aorta exposed, connective tissues and surrounding fatty tissues (for hydroxytryptamine receptor antagonism test, endothelia should be removed with smooth stainless steel rod) removed, the aorta was cut into 3-5 mm vascular rings which were penetrated together with a steel wire with one end fixed on ventilation hook, another end on pressure tonotransducer. The aorta rings were put into a bath tube with 20 ml of nutritional solution, and the tension changes were recorded by using the recorder. The temperature of bath tube was maintained at 37±0.5° C., and mixed gas (95% O2+5% CO2) was ventilated at a rate of I-2 bubbles/second. The initial load of the sample was 1.5 g, nutritional solution was changed for every 20 min. The sample was balanced for 2 hours, and the experiment would be started when baseline became stable.
After sample tension became stable, a piece of waveform was recorded, 5-HT (10^−7-3×10^−4 mol/L) was added into the bath tube until maximal response, then waveform was recorded. […] 5-HT was also added by using the same method 20 min later. The maximal response was considered 100%, 5-HT constriction percentage was used as Y axis, negative logarithms of different concentrations of 5-HT were used as X axis to draw dose effective curve.
After sample tension became stable, a piece of waveform was recorded, 5-HT (10^−8-10^−3 mol/L) was added into the bath tube until maximal response, then waveform was recorded. […] 5-HT was also added by using the same method 20 min later. The maximal response was considered 100%, 5-HT constriction percentage was used as Y axis, negative logarithms of different concentrations of 5-HT were used as X axis to draw dose effective curve (data were expressed in mean±SEM ( ? ), *P<0.05, **P<0.01, n=7).
After sample tension became stable, a piece of waveform was recorded, 5-HT (10^−8-3×10^−4 mol/L) was added into the bath tube until maximal response, then waveform was recorded. […] 5-HT was also added by using the same method 20 min later. […]
Method for Calcium Channel (Ca^2+): as §1
After sample tension became stable, calcium K-H solution was used to flush the sample for 3 times, and incubated with calcium free K-H solution for 40 min. Calcium free high kalium solution was added into the sample for depolarization for 20 min, then CaCl2 (10^−6-10^−2 mol/L) was added into bath tube till maximal response was achieved, and then waveform was recorded. Then K-H solution was used to flush the sample repeatedly, the K-H solution was changed for every 20 min, and the sample was balanced for 60 min. […]
After sample tension became stable, calcium K-H solution was used to flush the sample for 3 times, and incubated with calcium free K-H solution for 40 min. Calcium free high kalium solution was added into the sample for depolarization for 20 min, then CaCl2 (10^−6-10^−2 mol/L) was added into bath tube till maximal response was achieved, and then waveform was recorded. […] Calcium free high kalium solution was added into the sample for depolarization for 20 min, then amlodipine (10^−7 mol/L) was added into bath tube, which was incubated for 15 min, then CaCl2 (10^−6-10^−2 mol/L) was added by using the same method till maximal response was achieved, and then waveform was recorded. […]

On to `Fc1ccc2c(C3CCN(CCCn4nnc5ccc(F)cc54)CC3)noc2c1` [II-88, N-(3-(6-fluoro-1H-benzotriazole-1-yl)propyl)-4-(3-(6-fluorobenzisoxazolyl))piperidine], for which the “−logEC50” value in data set [1] amounted to 5.61 ± 0.05; in data set [2], 5.73 ± 0.05; in data set [3] it was 4.72 ± 0.05.

For the molecule `Fc1ccc2c(C3CCN(CCCn4nnc5ccc(Cl)cc54)CC3)noc2c1` [II-89, N-(3-(6-chloro-1H-benzotriazole-1-yl)propyl)-4-(3-(6-fluorobenzisoxazolyl))piperidine], the “−logEC50” value came to 5.42 ± 0.04 in data set [1], 5.22 ± 0.04 in data set [2] and 4.12 ± 0.04 in data set [3].

Consider `COc1ccc2nnn(CCCCN3CCC(c4cccc(C(F)(F)F)c4)CC3)c2c1` [II-114, N-(4-(6-methoxyl-1H-benzotriazole-1-yl)butyl)-4-(3-trifluoromethylphenyl)piperidine], for which the “−logEC50” value is reported as 4.86 ± 0.03 in data set [1] and 3.56 ± 0.03 in data set [3]. A half-maximal response in data set [2] (EC50) required 17 µM.

As for `c1ccc2c(C3CCN(CCCCn4nnc5ccccc54)CC3)cccc2c1` [II-122, N-(4-(1H-benzotriazole-1-yl)butyl)-4-(1-naphthyl)piperidine], the EC50 in data set [1] was 60.3 µM; in data set [2] it was 45.7 µM. Further, the “−logEC50” value in data set [3] is given as 3.04 ± 0.03.

Take `c1coc(C2CCN(CCCCn3cnc4ccccc43)CC2)c1` [II-118, N-(4-(1H-benzimidazoyl-1-yl)butyl)-4-(2-furyl)piperidine]: the entries for the “−logEC50” value in data set [1] and in data set [3] were 4.43 ± 0.05 and 3.53 ± 0.03, respectively. For the same molecule, it took 58.9 µM to reach a half-maximal effect in data set [2] (EC50).

On to `O=P1(N(CCCl)CCCl)NCCCO1` (stereo not drawn) [cyclophosphane, reference compound], for which the “micronuclei cells in 1000 polychromatic erythrocytes” value in the data set with Kunming mice was determined as 12%.

Take `FC(F)(F)c1cccc(N2CCN(CCCCn3nnc4ccccc43)CC2)c1` [II-31, 1-(4-(4-(3-trifluoromethylphenyl)piperazine-1-yl)butyl)-1H-benzotriazole]: the results for the EC50 in data set [1] and in data set [3] were 0.646 µM and 2.82 µM, respectively. For the same molecule, the “PA2 value to resist constriction of rabbit aorta by NA” value in the data set on α1 receptor was 6.02±0.13. Further, in the data set with Calcium Channel (Ca^2+), the “PA2 value to resist constriction of rabbit aorta by CaCl2” value is given as 6.56±0.032. This molecule also showed a Kb at 5-HT2A receptor of 0.188 µM.

Regarding `COc1ccc2c(C3CCN(CCCn4nnc5ccccc54)CC3)noc2c1` [II-87, N-(3-(1H-benzotriazole-1-yl)propyl)-4-(3-(6-methoxylbenzisoxazolyl))piperidine], the “−logEC50” value in data set [1] stood at 5.34 ± 0.03; in data set [2], 5.04 ± 0.03; in data set [3], 4.12 ± 0.03.

As for `COc1ccc2nnn(OCCN3CCC(c4noc5ccccc45)CC3)c2c1` [II-147, N-(2-(6-methoxylbenzotriazolyl)ethoxyl)-4-(3-benzisoxazolyl)piperidine], the EC50 in data set [1] was 93.3 µM; in data set [2], 49 µM; in data set [3] it was 295 µM.

`Fc1cccc(C2CCN(CCCCn3cnc4ccccc43)CC2)c1` [II-111, N-(4-(1H-benzimidazoyl-1-yl)butyl)-4-(3-fluorophenyl)piperidine]: the results for the “−logEC50” value in data set [1] and in data set [3] were 4.89 ± 0.02 and 3.44 ± 0.02, respectively. The EC50 in data set [2] is 21.4 µM.

On to `c1ccc2c(c1)nnn2CCCN1CCC(c2noc3ccccc23)CC1` [II-84, N-(3-(1H-benzotriazole-1-yl)propyl)-4-(3-benzisoxazolyl)piperidine], for which the figures for the EC50 in data set [1], in data set [2] and in data set [3] were 0.589 µM, 0.676 µM and 53.7 µM, respectively.

For `Fc1ccc2c(C3CCN(CCOn4nnc5ccccc54)CC3)noc2c1` [II-99, N-(2-(1-benzotriazolyl)ethoxyl)-4-(3-(6-fluorobenzisoxazolyl))piperidine], the EC50 is 55 µM in data set [1], 91.2 µM in data set [2] and 550 µM in data set [3].

On to `COc1ccc2nnn(CCCN3CCC(c4noc5cc(F)ccc45)CC3)c2c1` [II-91, N-(3-(6-methoxyl-1H-benzotriazole-1-yl)propyl)-4-(3-(6-fluorobenzisoxazolyl))piperidine], for which the results for the “−logEC50” value in data set [1] and in data set [3] were 5.23 ± 0.05 and 4.02 ± 0.05, respectively. This molecule also showed an EC50 in data set [2] of 4.9 µM.

Take `COc1ccc2nnn(CCCN3CCC(c4noc5cc(F)ccc45)CC3)c2c1` [II-140, N-(3-(6-methoxyl-1H-benzotriazole-1-yl)propyl)-4-(3-(6-fluorobenzisoxazolyl))piperidine]: the EC50 in data set [1] was 5.89 µM. Moreover, the “−logEC50” value was determined as 5.31 ± 0.05 in data set [2] and 5.02 ± 0.05 in data set [3].

For `Fc1ccc2nnn(CCCCN3CCC(c4cccc(C(F)(F)F)c4)CC3)c2c1` [II-113, N-(4-(6-fluoro-1H-benzotriazole-1-yl)butyl)-4-(3-trifluoromethylphenyl)piperidine], the “−logEC50” value was determined as 5.31 ± 0.04 in data set [1] and 4.03 ± 0.04 in data set [3]. The EC50 in data set [2] is 6.17 µM.

As to `COc1ccc2c(C3CCN(CCCCn4nnc5ccc(C#N)cc54)CC3)noc2c1` [II-97, N-(4-(6-cyanobenzotriazolyl)butyl)-4-(3-(6-methoxylbenzisoxazolyl))piperidine], the results for the “−logEC50” value in data set [1] and in data set [3] were 5.23 ± 0.06 and 3.23 ± 0.04, respectively. This molecule also gave an EC50 in data set [2] of 8.13 µM.

The record behind these values is US9415047B2, “Use of benzo five-membered nitrogen heterocyclic piperazine or piperidine derivatives” (Liaoning Emmy Biological Pharmaceutical Co., Ltd., priority 2012, dated 2016).
